# Assay results reported in PubChem BioAssay AID2060899 (Molecular Pharmacology Branch, DTP, NCI, 2025).
# Test system: 565726-208-R1-J5-PDC complex spheroids, growth inhibition
# Test: Anticancer human tumor 565726-208-R1-J5-PDC patient-derived pancreatic adenocarcinoma cell line growth inhibition [RAS]
# Details: for viability, T/C: stronger effect = lower value
# How it was run: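 Agents were tested in combination matrices in half-log decrements from a top concentration at or near clinical Cmax (10 microM if undetermined). Targets were multi-cell spheroids of tumour lines plus HUVEC and MSC stromal cells.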
# 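Also: spheroids exposed to compounds for seven days before readout.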
# 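For viability, T/C in this document: 100% = DMSO vehicle control viability.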
smiles,measurement,setting,value
O=C(c1ccc(F)c(F)c1Nc1ccc(I)cc1F)N1CC(O)([C@@H]2CCCCN2)C1 + C#Cc1c(F)ccc2cc(O)cc(-c3ncc4c(N5CC6CCC(C5)N6)nc(OCC56CCCN5CC(F)C6)nc4c3F)c12,IC50,"curve of first compound, second compound 0.0316 µM",593 nM
same,IC50,"curve of first compound, second compound 0.1 µM",> 1000 nM
same,IC50,"curve of first compound, second compound 0.316 µM",95 nM
same,IC50,"curve of first compound, second compound 1 µM",76.8 nM
same,IC50,"curve of first compound, second compound 3.16 µM",83.4 nM
same,IC50,"curve of first compound, second compound 10 µM",26.3 nM
same,"viability, T/C","second compound 0.0316 µM, first compound 0.00316 µM",118%
same,"viability, T/C","second compound 0.0316 µM, first compound 0.01 µM",131%
same,"viability, T/C","second compound 0.0316 µM, first compound 0.0316 µM",74.8%
same,"viability, T/C","second compound 0.0316 µM, first compound 0.1 µM",76.5%
same,"viability, T/C","second compound 0.0316 µM, first compound 0.316 µM",78.3%
same,"viability, T/C","second compound 0.0316 µM, first compound 1 µM",33.3%
same,"viability, T/C","second compound 0.1 µM, first compound 0.00316 µM",116%
same,"viability, T/C","second compound 0.1 µM, first compound 0.01 µM",138%
same,"viability, T/C","second compound 0.1 µM, first compound 0.0316 µM",69.1%
same,"viability, T/C","second compound 0.1 µM, first compound 0.1 µM",62.3%
same,"viability, T/C","second compound 0.1 µM, first compound 0.316 µM",63.6%
same,"viability, T/C","second compound 0.1 µM, first compound 1 µM",34.8%
same,"viability, T/C","second compound 0.316 µM, first compound 0.00316 µM",117%
same,"viability, T/C","second compound 0.316 µM, first compound 0.01 µM",118%
same,"viability, T/C","second compound 0.316 µM, first compound 0.0316 µM",67.3%
same,"viability, T/C","second compound 0.316 µM, first compound 0.1 µM",53.9%
same,"viability, T/C","second compound 0.316 µM, first compound 0.316 µM",62.7%
same,"viability, T/C","second compound 0.316 µM, first compound 1 µM",31%
same,"viability, T/C","second compound 1 µM, first compound 0.00316 µM",133%
same,"viability, T/C","second compound 1 µM, first compound 0.01 µM",103%
same,"viability, T/C","second compound 1 µM, first compound 0.0316 µM",62.8%
same,"viability, T/C","second compound 1 µM, first compound 0.1 µM",43%
same,"viability, T/C","second compound 1 µM, first compound 0.316 µM",58%
same,"viability, T/C","second compound 1 µM, first compound 1 µM",28.8%
same,"viability, T/C","second compound 3.16 µM, first compound 0.00316 µM",109%
same,"viability, T/C","second compound 3.16 µM, first compound 0.01 µM",91.7%
same,"viability, T/C","second compound 3.16 µM, first compound 0.0316 µM",65.6%
same,"viability, T/C","second compound 3.16 µM, first compound 0.1 µM",38.8%
same,"viability, T/C","second compound 3.16 µM, first compound 0.316 µM",43.7%
same,"viability, T/C","second compound 3.16 µM, first compound 1 µM",17.8%
same,"viability, T/C","second compound 10 µM, first compound 0.00316 µM",88.1%
same,"viability, T/C","second compound 10 µM, first compound 0.01 µM",63%
same,"viability, T/C","second compound 10 µM, first compound 0.0316 µM",39%
same,"viability, T/C","second compound 10 µM, first compound 0.1 µM",38.9%
same,"viability, T/C","second compound 10 µM, first compound 0.316 µM",22.1%
same,"viability, T/C","second compound 10 µM, first compound 1 µM",5.94%
CC(C)NCC(C(=O)N1CCN(c2ncnc3c2C(C)CC3O)CC1)c1ccc(Cl)cc1 (configuration not stated) + CCn1c(-c2cc(N3CCN(C)CC3)cnc2C(C)OC)c2c3cc(ccc31)-c1csc(n1)CC(NC(=O)C1CC1C)C(=O)N1CCCC(N1)C(=O)OCC(C)(C)C2,IC50,"curve of first compound, second compound 0.000949 µM",1520 nM
same,IC50,"curve of first compound, second compound 0.003 µM",347 nM
same,IC50,"curve of first compound, second compound 0.00949 µM",< 31.6 nM
same,IC50,"curve of first compound, second compound 0.03 µM",< 31.6 nM
same,IC50,"curve of first compound, second compound 0.0949 µM",< 31.6 nM
same,IC50,"curve of first compound, second compound 0.3 µM",< 31.6 nM
same,"viability, T/C","second compound 0.000949 µM, first compound 0.0316 µM",66.7%
same,"viability, T/C","second compound 0.000949 µM, first compound 0.1 µM",64.6%
same,"viability, T/C","second compound 0.000949 µM, first compound 0.316 µM",62.8%
same,"viability, T/C","second compound 0.000949 µM, first compound 1 µM",51.7%
same,"viability, T/C","second compound 0.000949 µM, first compound 3.16 µM",43.9%
same,"viability, T/C","second compound 0.000949 µM, first compound 10 µM",28.7%
same,"viability, T/C","second compound 0.003 µM, first compound 0.0316 µM",59.2%
same,"viability, T/C","second compound 0.003 µM, first compound 0.1 µM",58.8%
same,"viability, T/C","second compound 0.003 µM, first compound 0.316 µM",48.7%
same,"viability, T/C","second compound 0.003 µM, first compound 1 µM",41.2%
same,"viability, T/C","second compound 0.003 µM, first compound 3.16 µM",38.3%
same,"viability, T/C","second compound 0.003 µM, first compound 10 µM",21.4%
same,"viability, T/C","second compound 0.00949 µM, first compound 0.0316 µM",42.5%
same,"viability, T/C","second compound 0.00949 µM, first compound 0.1 µM",41.8%
same,"viability, T/C","second compound 0.00949 µM, first compound 0.316 µM",38.5%
same,"viability, T/C","second compound 0.00949 µM, first compound 1 µM",34.5%
same,"viability, T/C","second compound 0.00949 µM, first compound 3.16 µM",33.1%
same,"viability, T/C","second compound 0.00949 µM, first compound 10 µM",18.3%
same,"viability, T/C","second compound 0.03 µM, first compound 0.0316 µM",32%
same,"viability, T/C","second compound 0.03 µM, first compound 0.1 µM",34.1%
same,"viability, T/C","second compound 0.03 µM, first compound 0.316 µM",30.6%
same,"viability, T/C","second compound 0.03 µM, first compound 1 µM",28.5%
same,"viability, T/C","second compound 0.03 µM, first compound 3.16 µM",24.7%
same,"viability, T/C","second compound 0.03 µM, first compound 10 µM",14.7%
same,"viability, T/C","second compound 0.0949 µM, first compound 0.0316 µM",27%
same,"viability, T/C","second compound 0.0949 µM, first compound 0.1 µM",25.5%
same,"viability, T/C","second compound 0.0949 µM, first compound 0.316 µM",26.7%
same,"viability, T/C","second compound 0.0949 µM, first compound 1 µM",21%
same,"viability, T/C","second compound 0.0949 µM, first compound 3.16 µM",17.9%
same,"viability, T/C","second compound 0.0949 µM, first compound 10 µM",12.5%
same,"viability, T/C","second compound 0.3 µM, first compound 0.0316 µM",25.5%
same,"viability, T/C","second compound 0.3 µM, first compound 0.1 µM",22.5%
same,"viability, T/C","second compound 0.3 µM, first compound 0.316 µM",22.1%
same,"viability, T/C","second compound 0.3 µM, first compound 1 µM",18.8%
same,"viability, T/C","second compound 0.3 µM, first compound 3.16 µM",19.7%
same,"viability, T/C","second compound 0.3 µM, first compound 10 µM",12%
C=CC(=O)N1CCN(c2nc(OCC3CCCN3C)nc3c(F)c(-c4nc(N)cc(C)c4C(F)(F)F)c(Cl)cc23)C(C)C1 (configuration not stated),"viability, T/C",compound 0.1 µM,104% [middle of 12 runs]
same,IC50,"compound alone, run of 07/15/2024",> 1000 nM
same,IC50,curve of compound,> 1000 nM
